The record followed here is ChEMBL document CHEMBL1201862, “PubChem BioAssay data set” (2004).

What all share (assay): DTP human tumour cell line panel, 48 h
For assay [1], the system named is A498.
The subject of assay [2] is A549.
Assay [3] concerns ACHN.
Assay [4] has as its system DU-145.
Assay [5] relates to EKVX.
Assay [6] concerns HOP-62.
Assay [7] has as its system Hs-578T.
The test system of assay [8] is KM12.
Assay [9] has as its system MCF7.
The test system of assay [10] is NCI-H23.
Assay [11] has as its system NCI-H522.
The test system of assay [12] is PC-3.
Assay [13] has as its system SF-268.
Assay [14] has as its system SK-MEL-2.
Assay [15] concerns SK-OV-3.
Assay [16] deals with T47D.
For assay [17], the system named is U-251.
For assay [18], the system named is UACC-257.
The subject of assay [19] is UO-31.

As a reminder, the GI50 is the concentration at which growth is held to half of that of the control.

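Briefly, cells in 96-well plates were exposed to five compound concentrations for 48 h, and endpoints were estimated by linear interpolation. GI50 marks 50% less growth.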 Activity calls are given as the source filed them. No stated cut-off is given here; in the data, active = GI50 up to about 1.1 µM and inactive = higher.

In the case of `COc1cnc2oc3ccc(O)cc3c2c1-c1ccccc1`, the GI50 was > 100 µM (inactive) in [1]; > 100 µM (inactive) in assay [2]; > 100 µM (inactive) in assay [3]; > 100 µM (inactive) in assay [4]; > 100 µM (inactive) in [5]; 24 µM (inactive) in assay [6]. The GI50 was > 100 µM (inactive) in [7]; 83.2 µM (inactive) in assay [8]; 39.7 µM (inactive) in assay [9]; 44.7 µM (inactive) in [10]; > 100 µM (inactive) in assay [11]; > 100 µM (inactive) in assay [12]. The GI50 in [13] is 4 µM (inactive); in [14], > 100 µM (inactive); in assay [15], > 100 µM (inactive); in [16] it was 3.65 µM (inactive); in [17], > 100 µM (inactive); in assay [18] it was 88.5 µM (inactive). Further, in assay [19], the GI50 was 66.7 µM (inactive).
As for `COc1ccc(OC)c([N+](=O)[O-])c1-c1nc2sccn2c1/C=N/N=C(N)N`, the GI50 in assay [1], in assay [2], in [3], in assay [4], in [5] and in [6] was > 100 µM (inactive) throughout. The GI50 in assay [7] was 26.7 µM (inactive); in [8], 27.6 µM (inactive); in assay [9], 21.5 µM (inactive); in assay [10] it was > 100 µM (inactive); in [11], 58.2 µM (inactive); in assay [12], 53 µM (inactive). The GI50 was 44.6 µM (inactive) in assay [13]; 33.3 µM (inactive) in assay [14]; 61.7 µM (inactive) in assay [15]; 66.1 µM (inactive) in assay [16]; 41.1 µM (inactive) in assay [17]; 69.5 µM (inactive) in [18]. In addition, the GI50 in [19] is > 100 µM (inactive).
Take `CC(=O)OC[C@@H](OC(C)=O)[C@H](OC(C)=O)[C@@H]1OC(C)(C)O[C@@H]1C1SCCCS1`: the GI50 in assay [1], in assay [2], in assay [3], in assay [4], in [5] and in [6] was > 100 µM (inactive) throughout. Besides, the GI50 in assay [7], in assay [8], in assay [9], in assay [10], in assay [11] and in [12] was > 100 µM (inactive) in each case. Also, the GI50 in [13], in assay [14], in [15], in [16], in assay [17] and in assay [18] was > 100 µM (inactive) in each case. In [19], the GI50 is > 100 µM (inactive).
For `CC(C)(C)OC(=O)N(O)CCCn1cnc2c(N)ncnc21`, the GI50 in assay [1], in assay [2], in assay [3], in [4], in assay [5] and in assay [6] was > 100 µM (inactive) throughout. The GI50 in assay [7], in assay [8], in assay [9], in [10], in [11] and in assay [12] was > 100 µM (inactive) in each case. For the same compound, the GI50 in [13], in [14], in assay [15], in assay [16], in assay [17] and in assay [18] was > 100 µM (inactive) in each case. Also, the GI50 in assay [19] is > 100 µM (inactive).
`COC(=O)C1C(=O)C(C(=O)OC)C2CCC1N2C` (stereo not given): the GI50 is 76.9 µM (inactive) in assay [1]; > 100 µM (inactive) in [2]; 41 µM (inactive) in [3]; 28.8 µM (inactive) in assay [4]; > 100 µM (inactive) in assay [5]; 36.2 µM (inactive) in [6]. The GI50 is 52.2 µM (inactive) in assay [7]; > 100 µM (inactive) in assay [8]; 33.6 µM (inactive) in assay [9]; 0.571 µM (active) in assay [10]; > 100 µM (inactive) in assay [11]; 29.4 µM (inactive) in assay [12]. For the same compound, the GI50 in assay [13] is 96.6 µM (inactive); in [14] it was 20 µM (inactive); in assay [15], 28.4 µM (inactive); in assay [16], 30.7 µM (inactive); in assay [17], 56.1 µM (inactive); in assay [18] it was 83.4 µM (inactive). Besides, in assay [19], the GI50 is 59.8 µM (inactive).
For `COc1cc(Cc2cnc(N)nc2N)cc(OC)c1OCCCNc1ccc([N+](=O)[O-])cc1`, the GI50 in [1] is 14.9 µM (inactive); in [2] it was 13 µM (inactive); in assay [3] it was 18 µM (inactive); in [4] it was 15.8 µM (inactive); in assay [5] it was 15.3 µM (inactive); in assay [6], 13.6 µM (inactive). Moreover, the GI50 was 18.5 µM (inactive) in assay [7]; 14.4 µM (inactive) in [8]; 12.1 µM (inactive) in [9]; 16 µM (inactive) in assay [10]; 13 µM (inactive) in assay [11]; 10.1 µM (inactive) in [12]. For the same compound, the GI50 in assay [13] was 22.9 µM (inactive); in assay [14] it was 15.5 µM (inactive); in [15], 31.5 µM (inactive); in assay [16], 8.07 µM (inactive); in [17], 13.7 µM (inactive); in [18] it was 11.9 µM (inactive). In assay [19], the GI50 is 12.4 µM (inactive).
Take `CC1(C)OC[C@@H](C[C@H](O)COCc2ccccc2)O1`: the GI50 in assay [1], in [2], in [3], in assay [4], in [5] and in assay [6] was > 100 µM (inactive) in each case. For the same compound, the GI50 in [7], in assay [8], in assay [9], in assay [10], in assay [11] and in [12] was > 100 µM (inactive) each time. Further, the GI50 in assay [13], in assay [14], in assay [15], in [16], in assay [17] and in assay [18] was > 100 µM (inactive) in each case. In addition, in assay [19], the GI50 is > 100 µM (inactive).
Regarding `O=c1oc(-c2ccccc2)c(-c2ccccc2)n1-c1ccc(Br)cc1`, the GI50 in assay [1] is 26.2 µM (inactive); in [2] it was 54.5 µM (inactive); in [3], > 100 µM (inactive); in assay [4], 21 µM (inactive); in assay [5], 54.1 µM (inactive); in assay [6], 33.2 µM (inactive). The GI50 in assay [7] is 32.3 µM (inactive); in assay [8] it was 37.4 µM (inactive); in [9] it was > 100 µM (inactive); in assay [10], 19.8 µM (inactive); in assay [11], 17.2 µM (inactive); in [12], > 100 µM (inactive). Besides, the GI50 in assay [13] was 55 µM (inactive); in assay [14] it was > 100 µM (inactive); in assay [15], 31.1 µM (inactive); in assay [16], 29.4 µM (inactive); in [17], 24.2 µM (inactive); in assay [18] it was 86.9 µM (inactive). For the same compound, the GI50 in assay [19] is > 100 µM (inactive).
Turning to `CN(C)c1ccc(/C=C2\N=C(NN)NC2=O)cc1`, the GI50 in assay [1] was 98.2 µM (inactive); in assay [2], 61.8 µM (inactive); in [3] it was > 100 µM (inactive); in assay [4], 76.7 µM (inactive); in assay [5], 31.9 µM (inactive); in assay [6], > 100 µM (inactive). In addition, the GI50 in [7] was > 100 µM (inactive); in assay [8] it was 41.1 µM (inactive); in assay [9] it was 54.8 µM (inactive); in assay [10] it was > 100 µM (inactive); in assay [11] it was 46.1 µM (inactive); in assay [12], 40.2 µM (inactive). For the same compound, the GI50 in assay [13] was > 100 µM (inactive); in assay [14], > 100 µM (inactive); in assay [15], > 100 µM (inactive); in assay [16] it was 44.4 µM (inactive); in assay [17] it was 47.6 µM (inactive); in assay [18], > 100 µM (inactive). The GI50 in assay [19] was 94.6 µM (inactive).
As for `CCN(CC)CCNC(=O)c1cn2c(ccc3sc4ccccc4c(=O)c32)n1`, the GI50 in [1] is 15.3 µM (inactive); in assay [2], 4.36 µM (inactive); in [3], 3.64 µM (inactive); in [4], 12 µM (inactive); in assay [5] it was 14.6 µM (inactive); in assay [6], 5.96 µM (inactive). Further, the GI50 is 15.3 µM (inactive) in assay [7]; 12.2 µM (inactive) in assay [8]; 5.87 µM (inactive) in [9]; 11.2 µM (inactive) in assay [10]; 9.16 µM (inactive) in assay [11]; 10.8 µM (inactive) in assay [12]. Further, the GI50 in assay [13] is 6.93 µM (inactive); in assay [14], 21 µM (inactive); in assay [15] it was 12.1 µM (inactive); in assay [16], 14.5 µM (inactive); in assay [17] it was 13.7 µM (inactive); in assay [18], 14.3 µM (inactive). In addition, the GI50 in assay [19] was 7.03 µM (inactive).
